Test results reported in patent US11028087B2, “2,6-disubstituted-9-cyclopentyl-9H-purines, use thereof as medicaments, and pharmaceutical compositions” (UNIVERZITA PALACKEHO V OLOMOUCI, priority 2017, dated 2021).

Assays:
CDK7Cyclin H/MAT1 = target: T1, CDK7Cyclin H/MAT1 (Homo sapiens, UniProt P50613); experiment: Kinase inhibition assay with [γ-33P]ATP; type: biochemical; conditions: (YSPTSPS)2KK peptide, 1.5 μM ATP; read-out: IC50 values (μM) CDK7
T1 construct: purchased ProQinase GmbH

[1] = tested on: FLT3 (FLT3-ITD) in MV4-11 cells; experiment: Immunoblotting of FLT3 phosphorylation in MV4-11 cells; type: cell-based; conditions: MV4-11 FLT3-ITD cells, 1 hour treatment, immunoblotting (FIG. 1)
Procedure: Cells were exposed for 1 hour to the indicated concentrations of 264 or 270 and then levels of phosphorylations at specific tyrosine residues of FLT3 were analyzed.
To confirm kinase-inhibitory activity of novel compounds in cells, MV4-11 cells with FLT3-ITD and EOL-1 cells expressing FIP1L1-PDGFRA fusion protein were analyzed upon 1 hour treatment. Treated cells were harvested by centrifugation and homogenized in an extraction buffer (10 mM HEPES pH 7.4, 1 mM EDTA, 1 mM EGTA, 5 mM KC, 1.5 mM MgCl2, 0.5% NP40, supplemented with 1 mM DTT, 1 mM NaF, 0.1 mM Na3VO4, 1 mM PMSF, 0.5 μg/ml Leupeptin, 2 μg/ml Aprotinin) on ice for […]. The homogenates were clarified by centrifugation at 10,000 g for 30 min at 4° C., proteins were quantified by the Bradford method and then diluted to the same concentration. […] of total proteins were separated by SDS-polyacrylamide gel electrophoresis and transferred onto nitrocellulose membranes. […]

[2] = tested on: ERK1/2, STAT5 and STAT3 phosphorylation in MV4-11 cells; experiment: Immunoblotting of signaling downstream of FLT3 in MV4-11 cells; type: cell-based; conditions: 1 hour (FIG. 3)
Procedure: (§1) To confirm kinase-inhibitory activity of novel compounds in cells, MV4-11 cells with FLT3-ITD and EOL-1 cells expressing FIP1L1-PDGFRA fusion protein were analyzed upon 1 hour treatment. Treated cells were harvested by centrifugation and homogenized in an extraction buffer (10 mM HEPES pH 7.4, 1 mM EDTA, 1 mM EGTA, 5 mM KC, 1.5 mM MgCl2, 0.5% NP40, supplemented with 1 mM DTT, 1 mM NaF, 0.1 mM Na3VO4, 1 mM PMSF, 0.5 μg/ml Leupeptin, 2 μg/ml Aprotinin) on ice for […]. The homogenates were clarified by centrifugation at 10,000 g for 30 min at 4° C., proteins were quantified by the Bradford method and then diluted to the same concentration. […] of total proteins were separated by SDS-polyacrylamide gel electrophoresis and transferred onto nitrocellulose membranes. Membranes were blocked in 5% BSA in TBS with 0.1% Tween 20 and probed overnight with specific antibodies for FLT3 (clone 8F2), phospho-FLT3 Y589/591 (30D4), phospho-FLT3 Y591 (33G6), phospho-FLT3 Y842 (10A8), phospho-FLT3 Y969 (C24D9), PDGFRA (D1E1E), phospho-PDGFRA Y849/PDGFRB Y857 (C43E9), phospho-PDGFRA Y1018, p44/42 MAPK (ERK1/2), phospho-p44/42 MAPK (ERK1/2) (Thr202/Tyr204), STAT5, Phospho-STAT5(Tyr694), STAT3 (79D7), phospho-STAT3 (Tyr705) (D3A7), MEK1/2 (D1A5), phospho-MEK1/2 (Ser217/221) purchased from Cell Signaling, USA, α-tubulin (DM1A, Sigma Aldrich, USA) and PCNA (PC-10, gifted by Dr. B. Vojtesek). […]

[3] = tested on: ERK1/2, STAT5 and STAT3 phosphorylation in EOL-1 cells; experiment: Immunoblotting of signaling downstream of PDGFR in EOL-1 cells; type: cell-based; conditions: 1 hour (FIG. 4)
Procedure: as §1

[4] = tested on: FLT3 phosphorylation in MV4-11 xenograft; experiment: MV4-11 xenograft target modulation, pFLT3 immunoblot; type: in vivo, mice
Procedure: (§2) Female athymic nu/nu mice (8 weeks old) were subcutaneously implanted with 5×10^6 MV4-11 cells in 1:1 mixture with Matrigel (High concentration basement membrane Matrigel, Corning) into the hind flank on day 0. Tumors were allowed to growth to the volume of 500-800 mm^3. Body weight and tumor size were recorded 3 times a week. Mice were randomized to treatment groups, 4 to 5 mice each, for target modulation studies.
(§3) Mice were sacrificed at 2 time points (2 hours and 24 hours) after treatment. Tumors were resected and mechanically disintegrated. Cells were washed twice with PBS (lx), then lysed in ice-cold lysis buffer (10 mM HEPES pH 7.4, 1 mM EDTA, 1 mM EGTA, 5 mM KCl, 1.5 mM MgCl2) supplemented with protease and phosphatase inhibitors (10 mM β-glycerolphosphate; 1 mM NaF; 0.1 mM Na3VO4; 0.1 mM PMSF; 10 μg/ml Leupeptin; 2 μg/ml Aprotinin; 1 mM DTT) and cleared by centrifugation. Samples (50 μg of total protein amount) were separated on SDS-PAGE, followed by transfer of the separated proteins to nitrocellulose membrane.

[5] = tested on: STAT5 phosphorylation in MV4-11 xenograft; experiment: MV4-11 xenograft target modulation, pSTAT5 immunoblot; type: in vivo, mice; conditions: single dose 10 mg/kg intraperitoneal, after 24 hours
Procedure: as §2, §3

T1 sequence (P50613 whole entry): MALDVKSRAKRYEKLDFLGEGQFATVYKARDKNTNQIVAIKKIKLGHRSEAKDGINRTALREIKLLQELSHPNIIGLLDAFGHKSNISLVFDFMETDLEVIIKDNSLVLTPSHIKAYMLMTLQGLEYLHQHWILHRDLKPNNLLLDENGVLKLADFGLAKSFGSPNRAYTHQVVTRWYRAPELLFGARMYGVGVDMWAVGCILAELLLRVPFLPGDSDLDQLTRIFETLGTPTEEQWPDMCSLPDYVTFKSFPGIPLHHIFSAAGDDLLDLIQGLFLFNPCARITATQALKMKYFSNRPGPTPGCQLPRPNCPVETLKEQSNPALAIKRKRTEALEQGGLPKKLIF
T1 sequence (P51946 whole entry partner): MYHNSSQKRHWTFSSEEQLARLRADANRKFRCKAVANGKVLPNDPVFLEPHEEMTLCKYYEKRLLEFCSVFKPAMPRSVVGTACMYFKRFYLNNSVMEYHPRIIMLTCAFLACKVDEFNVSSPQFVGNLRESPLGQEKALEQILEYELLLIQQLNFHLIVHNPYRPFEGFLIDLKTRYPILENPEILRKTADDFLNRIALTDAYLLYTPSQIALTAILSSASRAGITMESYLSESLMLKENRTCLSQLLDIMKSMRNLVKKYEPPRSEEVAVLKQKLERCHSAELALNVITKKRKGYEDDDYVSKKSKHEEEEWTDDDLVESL
T1 sequence (P51948 whole entry partner): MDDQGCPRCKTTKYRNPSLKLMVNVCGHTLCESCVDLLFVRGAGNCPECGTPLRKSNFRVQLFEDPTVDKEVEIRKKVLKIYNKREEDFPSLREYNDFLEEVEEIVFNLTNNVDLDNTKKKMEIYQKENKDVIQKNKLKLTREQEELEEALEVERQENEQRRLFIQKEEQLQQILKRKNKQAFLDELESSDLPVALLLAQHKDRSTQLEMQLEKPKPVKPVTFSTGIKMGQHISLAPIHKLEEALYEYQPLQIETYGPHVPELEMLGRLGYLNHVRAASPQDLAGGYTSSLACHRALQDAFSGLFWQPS

SMILES	IC50 (CDK7Cyclin H/MAT1) [µM]	phosphorylation of tyrosine residues of FLT3 receptor kinase (including Y589, Y591, Y742) [1]	phosphorylation of ERK1/2, STAT5 and STAT3 [2]	phosphorylation of ERK1/2, STAT5 and STAT3 [3]	inhibition of pFLT3 in tumor ([4]; nu/nu mice, single dose 10 mg/kg intraperitoneal, 2 hours after administration) [%]	pFLT3 level in tumor at 24 hours ([4]; single dose 10 mg/kg (264 intraperitoneal, Quizartinib oral gavage), 24 hours)	reduction of pSTAT5 level in tumor [5]
CN1CC2(C1)CN(c1ccc(Nc3nc(NC4CCC(O)CC4)nc4c3ncn4C3CCCC3)cc1)C2 (centres unmarked) [Compound 7]	0.197						
NC1CCC(Nc2nc(Nc3ccc(CN4CCOCC4)cc3)c3ncn(C4CCCC4)c3n2)CC1 (centres unmarked) [Compound 264]	0.178	cellular FLT3 dephosphorylation	reduced phosphorylation	reduced phosphorylation	95	the inhibition sustained 24 hours	more than 95%
NCCCCNc1nc(Nc2ccc(CN3CCOCC3)cc2)c2ncn(C3CCCC3)c2n1 [Compound 270]		cellular FLT3 dephosphorylation	reduced phosphorylation	reduced phosphorylation			
